According to US11434242B2, “Dopamine-b-hydroxylase inhibitors” (BIAL-PORTELA & Cª, S.A., priority 2017, dated 2022):

Target: T1, Dopamine beta hydroxylase (Homo sapiens, UniProt P09172)
T1 construct: 125 μl of plasma; tissue Instituto Português do Sangue Transplantação; host or cells: human plasma from healthy donors
T1 sequence (P09172 40-617 limits assumed): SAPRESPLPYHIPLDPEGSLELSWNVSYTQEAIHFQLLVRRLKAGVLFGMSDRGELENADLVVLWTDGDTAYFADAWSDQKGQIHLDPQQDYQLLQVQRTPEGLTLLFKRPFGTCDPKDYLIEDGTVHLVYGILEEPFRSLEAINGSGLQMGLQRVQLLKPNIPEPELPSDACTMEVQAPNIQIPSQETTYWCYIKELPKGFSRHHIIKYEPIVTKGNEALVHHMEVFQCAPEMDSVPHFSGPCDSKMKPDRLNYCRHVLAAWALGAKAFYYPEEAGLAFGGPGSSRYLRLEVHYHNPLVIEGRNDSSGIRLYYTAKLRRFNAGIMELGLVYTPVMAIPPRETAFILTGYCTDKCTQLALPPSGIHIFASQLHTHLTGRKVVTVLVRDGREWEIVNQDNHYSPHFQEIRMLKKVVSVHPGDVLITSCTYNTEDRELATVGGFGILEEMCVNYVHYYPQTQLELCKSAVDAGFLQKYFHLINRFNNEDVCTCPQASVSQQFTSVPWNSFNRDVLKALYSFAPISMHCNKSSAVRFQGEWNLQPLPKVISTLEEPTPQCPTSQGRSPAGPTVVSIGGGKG
Test: Dopamine beta hydroxylase activity in human plasma
Assay type: biochemical
Details: for Plasma (0.01 μM), activity in % of control: inhibitor 0.01 μM; for Plasma (0.1 μM), activity in % of control: inhibitor 0.1 μM; for Plasma (1 μM), activity in % of control: inhibitor 1 μM
Experimental: Furthermore, the ability of a compound to inhibit DβH activity may be assessed in human plasma using the following assay. […]. Dopamine beta hydroxylase activity in human plasma was measured by the method of Nagatsu and Udenfriend (Nagatsu, T. and Udenfriend, S. “Photometric assay of dopamine-μ-hydroxylase activity in human blood.” Clin. Chem. 18(9) 980-983, 1972) with minor modifications. Catalase, N-ethylmaleimide, tyramine, disodium fumarate, pargyline, sodium acetate, ascorbic acid, copper sulfate and octopamine were obtained from Sigma Chemical Co., St. Louis, Mo. 63178. Human plasma samples were obtained from healthy donors (Instituto Português do Sangue Transplantação, Centro Sangue Transplantação, Porto, Portugal). From date of collection, plasma was stored at −80° C. until use. Test compounds were initially prepared in dimethyl sulfoxide at a concentration of 10 mM and diluted in dimethyl sulfoxide to the required concentrations. Test compounds were further diluted in ultrapure water to a concentration 20-fold to that of the final concentration to be tested. Final concentrations of test compounds were 10, 100 and 1000 nM. The various reagents used to make up the incubation buffer were premixed and consisted of the following components: sodium acetate buffer (1 M, pH 5.0, 18 ml), sodium fumarate (0.2 M, 4.5 ml), ascorbic acid (0.2 M, 4.5 ml, freshly prepared), pargyline (20 mM, freshly prepared, 4.5 ml), N-ethylmaleimide (0.2 M, 4.5 ml), catalase (10 000 U/ml, 9 ml), copper sulfate (20 μM, 4.5 ml) and 4.5 ultrapure water. The standard incubation mixture (total volume, 950 μl) contained: 50 μL of compound or vehicle (dimethyl sulfoxide 2%); 700 μL of incubation buffer; 125 μl of plasma (or saline for blank reaction or standard curve); 75 μl of saline. The reaction mixture was placed in water bath, shaking at 37° C. and pre-incubated for 10 minutes. Tyramine (0.5 M) was added and incubation proceeded for 45 minutes. The reaction contents were exposed to air. A sample of enzyme preparation (with 125 μl of plasma) that had been added perchloric acid 2 M at the end of the pre-incubation period was used as blank. A blank for each of the tested compounds was used. For octopamine standard curve, perchloric acid 2 M was replaced by increasing concentrations of octopamine prepared in perchloric acid 2 M (0.5, 1, 2.5, 5, 7.5, 10, 15, 20 μg/ml, final concentration). The incubation was stopped by adding 200 μl of 2 M molar perchloric acid, and the mixture was centrifuged at 9000 g for 5 min. The supernatant fluid (800 μL) was transferred to a column (SPE cartridge ISOLUTE SCX-3, 100 mg) and centrifuged at 150 g for 2 min. The column was washed two more times with 0.5 ml of ultrapure water by centrifuging at 150 g for 2 min. The adsorbed octopamine was eluted twice with 0.3 ml of 4 M ammonium hydroxide by centrifuging at 150 g for 2 min. Octopamine in the eluate was then converted to p-hydroxybenzaldehyde by adding 200 μl of sodium periodate (2%) and incubating for 6 min. Excess periodate was than reduced by adding 200 μl of sodium metabisulfite (10%). Absorbance was measured at […] in a 96-well plate by use of a SpectraMAX plus 384 (Molecular Devices) with software SOFTmax® PRO Software 5.3 spectrophotometer. Absorbance was linear with octopamine concentration from 0.5 to 20 μg/ml. Dopamine beta hydroxylase activity is determined as nmol of octopamine formed/ml of plasma/hour and effect of compounds is presented as % control.
Results are reported in the table below as activity in % of control at the inhibitor concentration tested.

SMILES	Plasma (0.01 μM), activity in % of control	Plasma (0.1 μM), activity in % of control	Plasma (1 μM), activity in % of control
CN(C(=O)Cc1c2n(c(=S)n1C)C[C@@H](c1c(F)ccc(F)c1F)C2)[C@@H]1CCOC1 [Example 455, N-methyl-2-((R)-2-methyl-3-thioxo-6-(2,3,6-trifluorophenyl)-2,5,6,7-tetrahydro-3H-pyrrolo[1,2-c]imidazol-1-yl)-N—((R)-tetrahydrofuran-3-yl)acetamide]	131.0 % of control	50.2 % of control	
O=C(Cc1[nH]c(=S)n2c1[C@@H]1C[C@]1(c1cc(Br)ccc1F)C2)NCC(F)(F)F [Example 152, 2-((5aS,6aR)-5a-(5-bromo-2-fluorophenyl)-3-thioxo-2,3,5,5a,6,6a-hexahydrocyclopropa[3,4]pyrrolo[1,2-c]imidazol-1-yl)-N-(2,2,2-trifluoroethyl)acetamide]	72.1 % of control	17.8 % of control	
O=C(Cc1[nH]c(=S)n2c1C[C@@H](c1c(F)c(F)cc(F)c1F)C2)NC1CCC1 [Example 99, (S)—N-cyclobutyl-2-(6-(2,3,5,6-tetrafluorophenyl)-3-thioxo-2,5,6,7-tetrahydro-3H-pyrrolo[1,2-c]imidazol-1-yl)acetamide]		55.7 % of control	10.3 % of control
O=C(Cc1[nH]c(=S)n2c1C[C@@H](c1c(F)ccc(Cl)c1F)C2)NC1CCS(=O)(=O)CC1 [Example 112, (S)-2-(6-(3-chloro-2,6-difluorophenyl)-3-thioxo-2,5,6,7-tetrahydro-3H-pyrrolo[1,2-c]imidazol-1-yl)-N-(1,1-dioxidotetrahydro-2H-thiopyran-4-yl)acetamide]	9.9 % of control	0 % of control	
Cn1c(CC(=O)NC2CCOCC2)c2n(c1=S)C[C@H](c1c(F)ccc(Cl)c1F)C2 [Example 367, (S)-2-(6-(3-chloro-2,6-difluorophenyl)-2-methyl-3-thioxo-2,5,6,7-tetrahydro-3H-pyrrolo[1,2-c]imidazol-1-yl)-N-(tetrahydro-2H-pyran-4-yl)acetamide]	45.4 % of control	4.3 % of control	
O=C(Cc1[nH]c(=S)n2c1C[C@@H](c1c(F)ccc(Cl)c1F)C2)N[C@H]1CCOC1 [Example 404, 2-((S)-6-(3-chloro-2,6-difluorophenyl)-3-thioxo-2,5,6,7-tetrahydro-3H-pyrrolo[1,2-c]imidazol-1-yl)-N—((S)-tetrahydrofuran-3-yl)acetamide]	78.7 % of control	26.2 % of control	
O=C(Cc1[nH]c(=S)n2c1C[C@H](c1c(F)c(F)cc(F)c1F)C2)NC1CCCC1 [Example 32]		46.2 % of control	9.7 % of control
N[C@@H](CNC(=O)Cc1[nH]c(=S)n2c1C[C@H](c1c(F)c(F)cc(F)c1F)C2)C(=O)O [Example 31, (S)-2-amino-3-(2-((R)-6-(2,3,5,6-tetrafluorophenyl)-3-thioxo-3,5,6,7-tetrahydro-2H-pyrrolo[1,2-c]imidazol-1-yl)acetamido)propanoic acid]		67.7 % of control	16.7 % of control
O=C(Cc1[nH]c(=S)n2c1C[C@H](c1c(F)ccc(F)c1F)C2)N[C@H]1CCOC1 [Example 370, 2-((R)-6-(2,3,6-trifluorophenyl)-3-thioxo-2,5,6,7-tetrahydro-3H-pyrrolo[1,2-c]imidazol-1-yl)-N—((S)-tetrahydrofuran-3-yl)acetamide]	88.5 % of control	64.7 % of control	
F.Fc1ccc(Br)cc1[C@]12C[C@H]1c1c(CCNC3CC3)[nH]c(=S)n1C2 [Example 187, (5aS,6aR)-5a-(5-bromo-2-fluorophenyl)-1-(2-(cyclopropylamino)ethyl)-5,5a,6,6a-tetrahydrocyclopropa[3,4]pyrrolo[1,2-c]imidazole-3(2H)-thione hydrofluoride]	72.6 % of control	21.6 % of control	
O=C(Cc1[nH]c(=S)n2c1[C@@H]1C[C@]1(c1cc(Br)ccc1F)C2)NCCc1ccccn1 [Example 145, 2-((5aS,6aR)-5a-(5-bromo-2-fluorophenyl)-3-thioxo-2,3,5,5a,6,6a-hexahydrocyclopropa[3,4]pyrrolo[1,2-c]imidazol-1-yl)-N-(2-(pyridin-2-yl)ethyl)acetamide]		18.2 % of control	2.0 % of control
O=C(Cc1[nH]c(=S)n2c1C[C@H](c1c(F)ccc(F)c1F)C2)N[C@@H]1CCCOC1 [Example 365, N—((R)-tetrahydro-2H-pyran-3-yl)-2-((R)-3-thioxo-6-(2,3,6-trifluorophenyl)-2,5,6,7-tetrahydro-3H-pyrrolo[1,2-c]imidazol-1-yl)acetamide]	101.3 % of control	56.9 % of control	
O=C(Cc1[nH]c(=S)n2c1C[C@@H](c1c(F)ccc(Cl)c1F)C2)N1CCC(F)(F)CC1 [Example 111, (S)-2-(6-(3-chloro-2,6-difluorophenyl)-3-thioxo-2,5,6,7-tetrahydro-3H-pyrrolo[1,2-c]imidazol-1-yl)-1-(4,4-difluoropiperidin-1-yl)ethan-1-one]	89.6 % of control	36.7 % of control	
[2H]C([2H])([2H])n1c(CC(=O)NC2CCOCC2)c2n(c1=S)C[C@H](c1c(F)ccc(Cl)c1F)C2 [Example 469, (S)-2-(6-(3-chloro-2,6-difluorophenyl)-2-(methyl-d)-3-thioxo-2,5,6,7-tetrahydro-3H-pyrrolo[1,2-c]imidazol-1-yl)-N-(tetrahydro-2H-pyran-4-yl)acetamide]	33.7 % of control	1.5 % of control	
CN(C(=O)Cc1[nH]c(=S)n2c1C[C@@H](c1c(F)ccc(Cl)c1F)C2)C1CCOC1 (stereo partly drawn) [Example 384, 2-((S)-6-(3-chloro-2,6-difluorophenyl)-3-thioxo-2,5,6,7-tetrahydro-3H-pyrrolo[1,2-c]imidazol-1-yl)-N-methyl-N-(tetrahydrofuran-3-yl)acetamide]	104.5 % of control	43.4 % of control	
Cn1c(CC(=O)NCC2CCOCC2)c2n(c1=S)C[C@H](c1c(F)ccc(Cl)c1F)C2 [Example 352, (S)-2-(6-(3-chloro-2,6-difluorophenyl)-2-methyl-3-thioxo-2,5,6,7-tetrahydro-3H-pyrrolo[1,2-c]imidazol-1-yl)-N-((tetrahydro-2H-pyran-4-yl)methyl)acetamide]	40.8 % of control	10.9 % of control	
